Data reported in paper PMC4821856, “Novel Anti-Campylobacter Compounds Identified Using High Throughput Screening of a Pre-selected Enriched Small Molecules Library” (Frontiers in Microbiology, 2016).

Key:
[1] = tested on: Caco-2 (human colonic carcinoma) cells; test: Cytotoxicity by LDH release; assay type: cell-based; details: Caco-2 cells, 200 μM; for Cytotoxicity (%): 24 h, LDH release, no FBS
Procedure: (§1) We evaluated 12 selected compounds for cytotoxicity to Caco-2 (human colonic carcinoma) cells as described previously (Xu et al., [2015]). The Caco-2 cells were obtained from the American Type Culture Collection (ATCC Rockville, MD) and maintained in minimal essential medium (MEM) supplemented with 20% fetal bovine serum (FBS), 1% non-essential amino acid (NEAA; Life Technologies, NY) and with 1 mM sodium pyruvate at 37°C in a humidified 5% CO2 incubator. A 96-well tissue culture plate was seeded with approximately 1.4 × 10^5 cells per well and incubated for 24 h at 37°C in an incubator until a confluent monolayer formed. It was necessary to assess the dose dependent cytotoxicity effect of DMSO as compounds were diluted in DMSO therefore, we determined the cytotoxic effect of varying concentrations of the DMSO vehicle control (1, 2, and 5%) in Caco-2 cells containing 150 μL of media (without FBS) incubated at 24 h. There was no significant difference among the varying DMSO concentrations and their cytotoxicity values. Therefore, we used 1% DMSO in duplicate wells along with other appropriate controls for cytotoxicity experiment.
(§2) It is likely that the compounds can bind to serum proteins (FBS) present in the media and thus influence the true cytotoxic effect of the compounds; therefore, we performed the cytotoxicity assay in absence of FBS. The cytotoxicity assay was performed according to manufacturer instructions (Pierce TM; Thermo Scientific, IL) and the percentage of cytotoxicity was calculated by measuring the release of lactate dehydrogenase (LDH) enzyme from the treated cells. Briefly, ~1.4 × 10^5 cells were grown in a 96-well tissue culture plate containing 150 μL of growth medium. After three washes with medium without supplementation, 1 μL (200 μM) of compound was added to duplicate wells and incubated for 24 h at 37°C in a humidified, 5% CO2 incubator. Subsequently, 50 μL of supernatants were collected for measuring LDH release and the degree of cytotoxicity was determined according to the manufacturer instructions.
(§3) Three independent experiments were conducted in duplicate samples in each experiment and the average cytotoxicity values were plotted.

[2] = Cytotoxicity by LDH release; assay type: cell-based, human; details: human, Caco-2 cells, 24 h, LDH release, no FBS
Procedure: as §1, §2, §3

Compound | Relative cytotoxicity among the 12 compounds [1] | cytotoxicity at 24 h, 200 µM [2] | Cytotoxicity (%) [1]
O=S(=O)(Nc1cccc(C(F)(F)F)c1)c1ccc(Br)cc1 [Comp 1] | highest cytotoxicity | 30.3% | –
COc1ccc(CN2CCN(c3ccc(F)cc3)CC2)cc1C [Comp 2] | – | ≤ 10% | 6.9%
CN(C)c1ccc(CN2CCN(c3ccccc3Cl)CC2)cc1 [Comp 3] | – | 11.3% | –
Clc1ccc(N2CCN(Cc3ccsc3)CC2)cc1 [Comp 4] | – | – | 4.6%
Cc1ccc(N2CCN(C/C=C/c3ccccc3)CC2)cc1 [Comp 5] | – | ≤ 10% | 6.5%
O=c1c(Cl)c(Cl)cnn1-c1ccccc1Cl [Comp 7] | – | 28% | –
Cc1c(C(C)NCc2cccc(OC3CCCC3)c2)cnn1-c1ccccc1 (centres unmarked) [Comp 10] | – | 27.8% | –
COc1ccc(CNCc2ccc(Cl)s2)cc1OCC(O)CN1CCCC1 (centres unmarked) [Comp 12] | least cytotoxic | – | 0%
CN(Cc1cccc2cnccc12)CC1CCCN(CCc2ccc(F)cc2)C1 (centres unmarked) [Comp 13] | least cytotoxic | – | 0%
CN(CC(O)COc1ccccc1CNC1(c2ccccc2)CC1)C1CCCCC1 (centres unmarked) [Comp 17] | – | 16.6% | –
CN(Cc1ccccc1)CC1CCCN(CCc2ccc(F)cc2)C1 (centres unmarked) [Comp 18] | – | 8.8% | –
CC(=O)Nc1ccc(CN(C)CC2CCCN(CCc3cccc(C(F)(F)F)c3)C2)cc1 (centres unmarked) [Comp 22] | – | 12.1% | –
